PubChem BioAssay AID282 (DTP/NCI, 2004)
Where “and” joins values, the source holds several entries; their conditions need not be identical. Equal values may be shown once. Inconclusive results and toxic doses are left out. Starred links: 1 amine or outer side, 2 acyl side, 3 side chain; linkers in the order of their positions; H or OH if unused. Positions of bridges follow the written chain, without caps; N, C: chain ends. Non-standard residues stand in square brackets, D forms with d. Residues, ends and D or L forms follow the SMILES beside them. Chains are numbered I, II in the order given. Actinocin(9to1) = Cc1c2oc3c(C)ccc(C(=O)[*:1])c3nc-2c(C(=O)[*:2])c(N)c1=O; aThr = C[C@H](O)[C@H](N)C(=O)O; NMeV = CN[C@H](C(=O)O)C(C)C; Sar = CNCC(=O)O

Tested on: BDF1 mice, L1210 terephthalanilide-resistant leukemia ip, survival T/C
Assay: NCI In Vivo Anticancer Drug Screen. Data for tumor model L1210 Leukemia resistant to A Terephthalanilide; NSC 38280 (intraperitoneal) in B6D2F1 (BDF1) mice
Settings: endpoint: mean survival time, higher = longer survival
Description: The antitumor activity of compounds was measured in mice bearing transplantable tumors. Survival or tumor size were measured and the results are expressed as the measurement made in the treated group (T) divided by the measurement made in the vehicle treated control group (C). The tumor model used in this assay is L1210 Leukemia resistant to A Terephthalanilide; NSC 38280 (intraperitoneal) in B6D2F1 (BDF1) mice

[1] = dose: 8.0 mg/kg/injection, schedule: Q01DX010 (ip), vehicle: saline
[2] = dose: 16.0 mg/kg/injection, schedule: Q01DX010 (ip), vehicle: saline
[3] = dose: 32.0 mg/kg/injection, schedule: Q01DX010 (ip), vehicle: saline
[4] = dose: 62.5 mg/kg/injection, schedule: Q01DX Z (ip), vehicle: carboxymethylcellulose (CMC)
[5] = dose: 64.0 mg/kg/injection, schedule: Q01DX010 (ip), vehicle: saline
[6] = dose: 125.0 mg/kg/injection, schedule: Q01DX Z (ip), vehicle: carboxymethylcellulose (CMC)
[7] = dose: 25.0 mg/kg/injection, schedule: Q01DX Z (ip), vehicle: carboxymethylcellulose (CMC)
[8] = dose: 31.3 mg/kg/injection, schedule: Q01DX010 (ip), vehicle: saline
[9] = dose: 62.5 mg/kg/injection, schedule: Q01DX010 (ip), vehicle: saline
[10] = dose: 100.0 mg/kg/injection, schedule: Q01DX Z (ip), vehicle: carboxymethylcellulose (CMC)
[11] = dose: 125.0 mg/kg/injection, schedule: Q01DX010 (ip), vehicle: saline
[12] = dose: 25.0 mg/kg/injection, schedule: Q01DX010 (ip), vehicle: saline
[13] = dose: 50.0 mg/kg/injection, schedule: Q01DX010 (ip), vehicle: saline
[14] = dose: 100.0 mg/kg/injection, schedule: Q01DX010 (ip), vehicle: saline
[15] = dose: 87.5 mg/kg/injection, schedule: Q01DX Z (ip), vehicle: other
[16] = dose: 200.0 mg/kg/injection, schedule: Q01DX010 (ip), vehicle: saline

Q: How did the T/C (dose: 12.5 mg/kg/injection, schedule: Q01DX010 (sc), vehicle: steriod suspending solution) turn out when `CC/C(=C(/CC)c1ccc(O)cc1)c1ccc(O)cc1` was run?
A: 96 % of control and 102 % of control

Q: What about the T/C (dose: 25.0 mg/kg/injection, schedule: Q01DX010 (sc), vehicle: steriod suspending solution) of the same molecule?
A: 89 % of control and 102 % of control

Q: What about the T/C (dose: 50.0 mg/kg/injection, schedule: Q01DX010 (sc), vehicle: steriod suspending solution) of the same molecule?
A: 102 % of control and 103 % of control

Q: What about the T/C (dose: 100.0 mg/kg/injection, schedule: Q01DX010 (sc), vehicle: steriod suspending solution) of the same molecule?
A: 96 % of control and 98 % of control

Q: What does the source list for `Nc1nc(SCc2ccccc2)c2[nH]cnc2n1`?
A: T/C [1]: 92 % of control and 104 % of control; T/C [2]: 104 % of control; T/C [3]: 115 % of control; T/C [4]: 111 % of control; T/C [5]: 95 % of control and 114 % of control; T/C [6]: 107 % of control

Q: How did the T/C (dose: 15.6 mg/kg/injection, schedule: Q01DX010 (ip), vehicle: saline) turn out when `CCn1cnc2c(=S)nc[nH]c21` was run?
A: 104 % of control

Q: What about the T/C [7] of the same molecule?
A: 113 % of control

Q: And the T/C [8]?
A: 106 % of control and 109 % of control

Q: And the T/C [9]?
A: 95 % of control and 118 % of control

Q: And the T/C [10]?
A: 155 % of control

Q: What about the T/C [11] of the same molecule?
A: 123 % of control and 106 % of control

Q: For `CS(=O)(=O)OCCC(=O)N1CCN(C(=O)CCOS(C)(=O)=O)CC1`, which T/C (dose: 12.5 mg/kg/injection, schedule: Q01DX010 (ip), vehicle: saline) is on record?
A: 106 % of control and 109 % of control

Q: And the T/C [12]?
A: 120 % of control

Q: What about the T/C [13] of the same molecule?
A: 107 % of control

Q: What about the T/C [14] of the same molecule?
A: 120 % of control

Q: Which T/C [8] does the source give for `CCCSc1ncnc2nc[nH]c12` here?
A: 95 % of control and 99 % of control

Q: What about the T/C (dose: 44.0 mg/kg/injection, schedule: Q01DX Z (ip), vehicle: other) of the same molecule?
A: 96 % of control

Q: And the T/C [9]?
A: 106 % of control and 111 % of control

Q: What about the T/C [15] of the same molecule?
A: 121 % of control

Q: And the T/C [11]?
A: 100 % of control and 111 % of control

Q: What does the source list for `CN(C)c1nc(N(C)C)nc(N(C)C)n1`?
A: T/C (dose: 18.8 mg/kg/injection, schedule: Q01DX010 (ip), vehicle: saline): 94 % of control and 95 % of control; T/C (dose: 37.5 mg/kg/injection, schedule: Q01DX010 (ip), vehicle: saline): 94 % of control and 100 % of control; T/C (dose: 75.0 mg/kg/injection, schedule: Q01DX010 (ip), vehicle: saline): 94 % of control and 99 % of control; T/C [15]: 110 % of control; T/C (dose: 150.0 mg/kg/injection, schedule: Q01DX010 (ip), vehicle: saline): 96 % of control and 99 % of control; T/C (dose: 175.0 mg/kg/injection, schedule: Q01DX Z (ip), vehicle: other): 119 % of control

Q: Which T/C (dose: 5.0 mg/kg/injection, schedule: Q01DX Z (ip), vehicle: saline) does the source give for `O=P1(N(CCCl)CCCl)NCCCO1` (stereo not given) here?
A: 102 % of control

Q: What about the T/C (dose: 10.0 mg/kg/injection, schedule: Q01DX Z (ip), vehicle: saline) of the same molecule?
A: 124 % of control

Q: What about the T/C (dose: 15.0 mg/kg/injection, schedule: Q01DX Z (ip), vehicle: saline) of the same molecule?
A: 122 % of control

Q: And the T/C (dose: 25.0 mg/kg/injection, schedule: Q01DX Z (ip), vehicle: saline)?
A: 160 % of control

Q: And the T/C (dose: 37.5 mg/kg/injection, schedule: Q01DX Z (ip), vehicle: saline)?
A: 200 % of control

Q: What about the T/C (dose: 50.0 mg/kg/injection, schedule: Q01DX Z (ip), vehicle: saline) of the same molecule?
A: 166 % of control and 239 % of control

Q: And the T/C (dose: 75.0 mg/kg/injection, schedule: Q01DX Z (ip), vehicle: saline)?
A: 102 % of control

Q: What about the T/C (dose: 200.0 mg/kg/injection, schedule: Q01DX Z (ip), vehicle: saline) of the same molecule?
A: 100 % of control

Q: For `CS(=O)(=O)OCC(O)C(O)COS(C)(=O)=O` (stereo not given), which T/C [7] is on record?
A: 107 % of control

Q: And the T/C (dose: 50.0 mg/kg/injection, schedule: Q01DX Z (ip), vehicle: carboxymethylcellulose (CMC))?
A: 103 % of control

Q: And the T/C [10]?
A: 103 % of control

Q: And the T/C [16]?
A: 101 % of control

Q: What about the T/C (dose: 200.0 mg/kg/injection, schedule: Q01DX Z (ip), vehicle: carboxymethylcellulose (CMC)) of the same molecule?
A: 101 % of control

Q: And the T/C (dose: 250.0 mg/kg/injection, schedule: Q01DX Z (ip), vehicle: carboxymethylcellulose (CMC))?
A: 100 % of control

Q: And the T/C (dose: 375.0 mg/kg/injection, schedule: Q01DX Z (ip), vehicle: carboxymethylcellulose (CMC))?
A: 111 % of control

Q: And the T/C (dose: 400.0 mg/kg/injection, schedule: Q01DX010 (ip), vehicle: saline)?
A: 97 % of control

Q: What about the T/C (dose: 800.0 mg/kg/injection, schedule: Q01DX010 (ip), vehicle: saline) of the same molecule?
A: 91 % of control

Q: How did the T/C (dose: 0.75 mg/kg/injection, schedule: Q01DX Z (ip), vehicle: saline) turn out when `Nc1nc(F)nc2c1ncn2C1OC(CO)C(O)C1O` (stereo not given) was run?
A: 111 % of control

Q: And the T/C (dose: 1.5 mg/kg/injection, schedule: Q01DX Z (ip), vehicle: saline)?
A: 108 % of control

Q: And the T/C (dose: 3.0 mg/kg/injection, schedule: Q01DX Z (ip), vehicle: saline)?
A: 114 % of control

Q: What about the T/C (dose: 6.0 mg/kg/injection, schedule: Q01DX Z (ip), vehicle: saline) of the same molecule?
A: 101 % of control

Q: Which T/C [1] does the source give for `O=C(Nc1ccc(C2=NCCN2)cc1)c1cccc(C(=O)Nc2ccc(C3=NCCN3)cc2)c1` here?
A: 94 % of control and 101 % of control

Q: And the T/C [2]?
A: 105 % of control and 110 % of control

Q: What about the T/C [3] of the same molecule?
A: 106 % of control and 110 % of control

Q: What about the T/C [5] of the same molecule?
A: 120 % of control

Q: `C[n+]1ccc(NC(=O)c2ccc(NC(=O)c3cccc(C(=O)Nc4ccc(C(=O)Nc5cc[n+](C)cc5)cc4)c3)cc2)cc1` was tested. Which T/C (dose: 5.0 mg/kg/injection, schedule: Q01DX010 (ip), vehicle: saline) did it give?
A: 87 % of control

Q: And the T/C (dose: 20.0 mg/kg/injection, schedule: Q01DX010 (ip), vehicle: saline)?
A: 116 % of control

Q: For `CSc1ncnc2nc[nH]c12`, which T/C [12] is on record?
A: 98 % of control and 100 % of control

Q: And the T/C (dose: 31.25 mg/kg/injection, schedule: Q01DX Z (ip), vehicle: carboxymethylcellulose (CMC))?
A: 102 % of control

Q: And the T/C [13]?
A: 100 % of control and 102 % of control

Q: And the T/C [4]?
A: 105 % of control

Q: What about the T/C [14] of the same molecule?
A: 102 % of control and 107 % of control

Q: What about the T/C [6] of the same molecule?
A: 113 % of control

Q: What about the T/C [16] of the same molecule?
A: 102 % of control and 105 % of control

Q: For `c1ccc(CCSc2ncnc3nc[nH]c23)cc1`, which T/C [9] is on record?
A: 90 % of control

Q: And the T/C [11]?
A: 104 % of control

Q: And the T/C (dose: 250.0 mg/kg/injection, schedule: Q01DX010 (ip), vehicle: saline)?
A: 99 % of control

Q: `Clc1ccc(C(c2ccccc2Cl)C(Cl)Cl)cc1` (stereo not given) was tested. Which T/C (dose: 62.5 mg/kg/injection, schedule: Q01DX Z (sc), vehicle: steriod suspending solution) did it give?
A: 102 % of control

Q: What about the T/C (dose: 125.0 mg/kg/injection, schedule: Q01DX Z (sc), vehicle: steriod suspending solution) of the same molecule?
A: 104 % of control

Q: What about the T/C (dose: 250.0 mg/kg/injection, schedule: Q01DX Z (sc), vehicle: steriod suspending solution) of the same molecule?
A: 93 % of control

Q: What about the T/C (dose: 500.0 mg/kg/injection, schedule: Q01DX Z (sc), vehicle: steriod suspending solution) of the same molecule?
A: 102 % of control

Q: And the T/C (dose: 750.0 mg/kg/injection, schedule: Q01DX Z (sc), vehicle: steriod suspending solution)?
A: 100 % of control

Q: What about the T/C (dose: 1000.0 mg/kg/injection, schedule: Q01DX Z (sc), vehicle: steriod suspending solution) of the same molecule?
A: 95 % of control

Q: What about the T/C (dose: 1200.0 mg/kg/injection, schedule: Q01DX Z (sc), vehicle: steriod suspending solution) of the same molecule?
A: 94 % of control

Q: What about the T/C (dose: 1500.0 mg/kg/injection, schedule: Q01DX Z (sc), vehicle: steriod suspending solution) of the same molecule?
A: 91 % of control

Q: With `Cc1c2oc3c(C)ccc(C(=O)N[C@@H]4C(=O)N[C@H](C(C)C)C(=O)N5CCC[C@H]5C(=O)N(C)CC(=O)N(C)[C@@H](C(C)C)C(=O)O[C@H]4C)c3nc-2c(C(=O)N[C@@H]2C(=O)N[C@H](C(C)C)C(=O)N3CCC[C@H]3C(=O)N(C)CC(=O)N(C)[C@@H](C(C)C)C(=O)O[C@H]2C)c(N)c1=O` (I: [aThr][dV]P[Sar][NMeV] / II: [aThr][dV]P[Sar][NMeV]; ester I:1-I:C, II:1-II:C; linker I:N-II:N via Actinocin(9to1)) as the molecule, how does the T/C (dose: 12.5 micrograms/kg/injection, schedule: Q01DX010 (ip), vehicle: other) read?
A: 117 % of control and 118 % of control

Q: And the T/C (dose: 25.0 micrograms/kg/injection, schedule: Q01DX010 (ip), vehicle: other)?
A: 121 % of control and 118 % of control

Q: What about the T/C (dose: 50.0 micrograms/kg/injection, schedule: Q01DX010 (ip), vehicle: other) of the same molecule?
A: 124 % of control and 117 % of control

Q: And the T/C (dose: 100.0 micrograms/kg/injection, schedule: Q01DX010 (ip), vehicle: other)?
A: 95 % of control and 103 % of control
